Target: BRCA1/BARD1 (Homo sapiens, UniProt P38398+Q99728)
Assay: ReBiL luminescence protein interaction assay, BRCA1/BARD1 negative control
Details: dosing above 10 μM, 10% serum

Chain of BRCA1/BARD1 (P38398 whole entry, species assumed): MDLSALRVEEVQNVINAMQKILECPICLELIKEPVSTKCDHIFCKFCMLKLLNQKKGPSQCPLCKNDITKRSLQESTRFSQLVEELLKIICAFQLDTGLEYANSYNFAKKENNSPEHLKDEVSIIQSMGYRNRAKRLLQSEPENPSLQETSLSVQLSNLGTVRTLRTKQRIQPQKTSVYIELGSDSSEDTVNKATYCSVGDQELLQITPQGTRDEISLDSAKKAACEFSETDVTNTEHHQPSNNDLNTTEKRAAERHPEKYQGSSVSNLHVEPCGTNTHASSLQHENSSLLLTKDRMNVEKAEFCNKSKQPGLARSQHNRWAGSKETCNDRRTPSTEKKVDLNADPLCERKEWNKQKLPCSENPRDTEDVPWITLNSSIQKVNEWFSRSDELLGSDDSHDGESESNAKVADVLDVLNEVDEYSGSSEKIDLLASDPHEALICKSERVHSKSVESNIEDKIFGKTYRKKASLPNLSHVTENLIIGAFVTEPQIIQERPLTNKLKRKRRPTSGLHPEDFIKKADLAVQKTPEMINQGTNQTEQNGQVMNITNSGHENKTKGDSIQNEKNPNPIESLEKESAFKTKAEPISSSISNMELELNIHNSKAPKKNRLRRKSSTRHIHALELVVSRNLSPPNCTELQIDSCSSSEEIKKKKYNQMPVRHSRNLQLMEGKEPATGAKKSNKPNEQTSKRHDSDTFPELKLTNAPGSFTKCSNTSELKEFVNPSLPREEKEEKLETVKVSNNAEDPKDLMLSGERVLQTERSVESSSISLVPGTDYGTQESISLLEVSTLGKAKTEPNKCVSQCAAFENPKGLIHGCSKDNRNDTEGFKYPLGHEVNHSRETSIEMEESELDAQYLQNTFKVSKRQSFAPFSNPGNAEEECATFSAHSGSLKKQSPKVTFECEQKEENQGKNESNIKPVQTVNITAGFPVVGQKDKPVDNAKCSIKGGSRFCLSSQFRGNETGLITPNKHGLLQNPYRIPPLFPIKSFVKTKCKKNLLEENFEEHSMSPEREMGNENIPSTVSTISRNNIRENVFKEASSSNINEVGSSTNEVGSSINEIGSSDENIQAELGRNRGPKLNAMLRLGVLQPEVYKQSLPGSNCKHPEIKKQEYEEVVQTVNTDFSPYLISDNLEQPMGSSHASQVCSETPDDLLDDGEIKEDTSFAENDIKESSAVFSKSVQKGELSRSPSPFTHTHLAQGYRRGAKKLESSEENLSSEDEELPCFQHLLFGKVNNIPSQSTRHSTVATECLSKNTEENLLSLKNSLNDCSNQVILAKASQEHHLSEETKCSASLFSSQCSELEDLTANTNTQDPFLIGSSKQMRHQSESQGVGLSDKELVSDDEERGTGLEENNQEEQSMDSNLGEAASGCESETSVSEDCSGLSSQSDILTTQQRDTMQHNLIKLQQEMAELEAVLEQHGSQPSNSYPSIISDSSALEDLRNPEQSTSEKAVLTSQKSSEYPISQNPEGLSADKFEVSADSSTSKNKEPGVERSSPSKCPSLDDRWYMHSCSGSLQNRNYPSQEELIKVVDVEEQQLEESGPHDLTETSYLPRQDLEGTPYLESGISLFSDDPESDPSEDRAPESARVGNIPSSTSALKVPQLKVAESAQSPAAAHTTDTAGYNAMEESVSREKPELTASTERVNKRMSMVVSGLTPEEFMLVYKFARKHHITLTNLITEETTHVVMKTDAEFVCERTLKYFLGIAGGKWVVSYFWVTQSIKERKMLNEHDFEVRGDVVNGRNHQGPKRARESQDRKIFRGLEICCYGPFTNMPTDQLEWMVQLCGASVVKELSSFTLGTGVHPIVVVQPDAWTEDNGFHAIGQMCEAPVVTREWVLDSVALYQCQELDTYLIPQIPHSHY
Chain of BRCA1/BARD1 (Q99728 whole entry, species assumed): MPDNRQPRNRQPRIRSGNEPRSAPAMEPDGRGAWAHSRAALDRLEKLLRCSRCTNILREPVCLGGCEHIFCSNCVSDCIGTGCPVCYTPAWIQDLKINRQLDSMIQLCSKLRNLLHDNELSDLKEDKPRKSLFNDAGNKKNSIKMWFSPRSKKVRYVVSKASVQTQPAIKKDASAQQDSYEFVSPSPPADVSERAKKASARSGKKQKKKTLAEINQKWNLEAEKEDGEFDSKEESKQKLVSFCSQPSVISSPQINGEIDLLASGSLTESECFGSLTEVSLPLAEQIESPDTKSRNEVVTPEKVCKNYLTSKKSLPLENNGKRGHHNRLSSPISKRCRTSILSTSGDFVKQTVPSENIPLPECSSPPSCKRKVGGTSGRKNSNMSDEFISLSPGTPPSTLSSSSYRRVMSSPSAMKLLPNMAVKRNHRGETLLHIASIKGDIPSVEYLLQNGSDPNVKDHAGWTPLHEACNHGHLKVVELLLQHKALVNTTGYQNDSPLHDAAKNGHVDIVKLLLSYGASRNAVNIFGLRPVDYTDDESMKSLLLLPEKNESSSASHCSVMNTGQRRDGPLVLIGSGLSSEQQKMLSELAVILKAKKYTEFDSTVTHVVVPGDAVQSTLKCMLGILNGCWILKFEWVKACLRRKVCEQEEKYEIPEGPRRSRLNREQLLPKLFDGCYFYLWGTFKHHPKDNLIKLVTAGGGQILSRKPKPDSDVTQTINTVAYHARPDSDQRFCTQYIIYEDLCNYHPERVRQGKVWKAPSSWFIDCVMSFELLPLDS

SMILES: COc1ccc(C2=N[C@@H](c3ccc(Cl)cc3)[C@@H](c3ccc(Cl)cc3)N2C(=O)N2CCNC(=O)C2)c(OC(C)C)c1 [Nutlin-3a]
- ReBiL signal suppression in BRCA1/BARD1 cell line above 10 μM: nonspecific activity

Reference: publication PMC5386833 (Oncogene, 2016)
